Assay [1] concerns Rattus norvegicus. Put plainly: Antiulcer activity in po dosed Sprague-Dawley rat assessed as dose required to inhibition of cold-restraint induced gastric erosions after 3 hrs. Type of assay: functional, Stomach.
Assay [2] has as its system Rattus norvegicus. Put plainly: Antisecretory activity in four-hours pylorus-ligated Sprague-Dawley rat assessed as inhibition of basal gastric secretion at 30 mg/kg administered intraduodenally. It counts as functional. Conditions: Stomach; for inhibition in vivo at 30 mg/kg: 4 h, route intraduodenal.
Assay [3] has as its system Rattus norvegicus. As to the kind of experiment: Antisecretory activity in four-hours pylorus-ligated Sprague-Dawley rat assessed as inhibition of basal gastric secretion at 10 mg/kg administered intraduodenally. It counts as functional, organism-based. Further details: dose 10 mg/kg. As to conditions: Stomach.

Active and inactive are the calls of the source. No cut-off for these calls is given here.

This note sets out measurements from ChEMBL document CHEMBL3244349, “5,6,7,8-Tetrahydroguinolines. 4. Antiulcer and antisecretory activity of 5,6,7,8-tetrahydroquinolinenitriles and -thioamides” (1977).

What is called inhibition in vivo is the change of the read-out against control, counted positive when it falls.

Turning to `CNC(=S)C1(C(=S)NC)CCCc2cccnc21.Cl`, the “Effective oral dose inhibiting gastric erosions” value in the assay on Rattus norvegicus [1] amounted to 100 mg/kg. Moreover, in the assay on Rattus norvegicus [2], the inhibition result is “inactive”. Regarding `Cc1cnc2c(c1)CCCC2C(=S)NCc1ccccc1.Cl` (centres undefined), the “Effective oral dose inhibiting gastric erosions” value in the assay with Rattus norvegicus [1] is 100 mg/kg. Besides, the inhibition result in the assay with Rattus norvegicus [2] was “inactive”. `Cl.NC(=S)C1CCCc2cccnc21` (centres undefined): in the assay on Rattus norvegicus [1], the “Effective oral dose inhibiting gastric erosions” value came out at 3 mg/kg. The inhibition entry with Rattus norvegicus [3] was “Active”. Consider `CNC(=S)C1CCCc2c1ncc1c2CCCC1` (centres undefined), for which the “Effective oral dose inhibiting gastric erosions” value in the assay with Rattus norvegicus [1] was determined as 100 mg/kg. Moreover, the inhibition result with Rattus norvegicus [2] was “inactive”. In the case of `Cc1cnc2c(c1)C(C)CCC2C(N)=S.Cl` (centres undefined), the “Effective oral dose inhibiting gastric erosions” value in the assay with Rattus norvegicus [1] is 30 mg/kg. Further, the inhibition entry with Rattus norvegicus [3] was “Active”. For the molecule `NC(=S)Cc1ccc2c(n1)CCCC2`, the “Effective oral dose inhibiting gastric erosions” value with Rattus norvegicus [1] was determined as 30 mg/kg. Besides, the inhibition result in the assay on Rattus norvegicus [2] was “inactive”. Take `CNC(=S)C1(OC)CCCc2cc(C)cnc21` (centres undefined): the inhibition result in the assay on Rattus norvegicus [2] was “inactive”. `Cc1cnc2c(c1)CCC(C)(C)C2C(N)=S.Cl` (centres undefined): in the assay on Rattus norvegicus [1], the “Effective oral dose inhibiting gastric erosions” value was determined as 100 mg/kg. For the same molecule, in the assay on Rattus norvegicus [2], the inhibition entry is “inactive”. Taken in the same sequence, the figures for `Cc1cc2c([n+]([O-])c1)C(C#N)CCC2` (centres undefined) were 100 mg/kg and “inactive”. On to `Cc1cc(C)c2c(n1)C(C(N)=S)CCC2` (centres undefined), for which the inhibition in vivo at 30 mg/kg in the assay on Rattus norvegicus [2] was less than 70%. For `Cc1cnc2c(c1)CCCC2C1=NCCCN1.Cl` (centres undefined), the “Effective oral dose inhibiting gastric erosions” value with Rattus norvegicus [1] amounted to 100 mg/kg. In addition, the inhibition result with Rattus norvegicus [2] is “inactive”. As to `NC(=O)C1CCCc2ccc(-c3ccccc3)nc21` (centres undefined), the “Effective oral dose inhibiting gastric erosions” value in the assay with Rattus norvegicus [1] was determined as 100 mg/kg. As to `Cc1ccc2c(n1)C(C(N)=S)CCC2` (centres undefined), the “Effective oral dose inhibiting gastric erosions” value in the assay with Rattus norvegicus [1] stood at 10 mg/kg. For the same molecule, the inhibition result in the assay with Rattus norvegicus [3] is “Active”.

For `Cl.NC(=S)C1CCc2cc3c(nc21)CCC3` (centres undefined), the “Effective oral dose inhibiting gastric erosions” value with Rattus norvegicus [1] was determined as 100 mg/kg. In the assay on Rattus norvegicus [2], the inhibition in vivo at 30 mg/kg was less than 70%. Consider `CNC(=S)C1CCCc2cc3ccccc3nc21` (centres undefined), for which the inhibition in vivo at 30 mg/kg in the assay on Rattus norvegicus [2] is less than 10%. For `CNC(=S)C1CCCc2cc(C)cnc21` (centres undefined), in the assay on Rattus norvegicus [1], the “Effective oral dose inhibiting gastric erosions” value worked out at 30 mg/kg. Besides, in the assay on Rattus norvegicus [2], the inhibition in vivo at 30 mg/kg is less than 10%. As for `Cc1cnc2c(c1)CCCC2C(=S)N(C)C` (centres undefined), the “Effective oral dose inhibiting gastric erosions” value in the assay with Rattus norvegicus [1] amounted to 100 mg/kg. Moreover, the inhibition entry in the assay on Rattus norvegicus [2] is “inactive”. For the molecule `Cc1cnc2c(c1)CC(C)CC2C(N)=S.Cl` (centres undefined), in the assay on Rattus norvegicus [1], the “Effective oral dose inhibiting gastric erosions” value was determined as 10 mg/kg. The inhibition in vivo at 30 mg/kg in the assay with Rattus norvegicus [2] is greater than 70%. Taken in the same sequence, the figures for `NC(=S)C1CCCc2cc3c(nc21)CCCC3` (centres undefined) were 100 mg/kg and less than 70%. For the molecule `N#CC1CCCc2ccc(-c3ccccc3)nc21` (centres undefined), in the assay on Rattus norvegicus [1], the “Effective oral dose inhibiting gastric erosions” value stood at 100 mg/kg. In addition, the inhibition entry in the assay on Rattus norvegicus [2] is “inactive”. Regarding `CNC(=S)C1CCCc2cccnc21.Cl` (centres undefined), the “Effective oral dose inhibiting gastric erosions” value with Rattus norvegicus [1] was 3 mg/kg. Also, in the assay with Rattus norvegicus [3], the inhibition result is “Active”. `N#CC1CCCc2cccnc21` (centres undefined): the inhibition in vivo at 30 mg/kg in the assay with Rattus norvegicus [2] was less than 70%.

Regarding `Cc1cnc2c(c1)CCCC2c1nc(C)cs1.Cl` (centres undefined), in the assay on Rattus norvegicus [1], the “Effective oral dose inhibiting gastric erosions” value amounted to 100 mg/kg. For the same molecule, in the assay with Rattus norvegicus [2], the inhibition result was “inactive”.

Regarding `CNC(=S)C1(C(=S)NC)CCc2cc(C)cnc21`, the “Effective oral dose inhibiting gastric erosions” value in the assay on Rattus norvegicus [1] turned out to be 100 mg/kg. Also, the inhibition result in the assay with Rattus norvegicus [2] is “inactive”.

Regarding `CC1CNC2C(CCCC2C(N)=S)C1` (centres undefined), the inhibition entry in the assay with Rattus norvegicus [2] was “inactive”.

For the molecule `Cc1cnc2c(c1)CCCC2C(=S)Nc1ccccc1` (centres undefined), the “Effective oral dose inhibiting gastric erosions” value in the assay with Rattus norvegicus [1] was 100 mg/kg. Moreover, in the assay on Rattus norvegicus [2], the inhibition result is “inactive”. As to `CCc1ccc2c(n1)C(C(N)=S)CCC2` (centres undefined), the inhibition in vivo at 30 mg/kg in the assay on Rattus norvegicus [2] is less than 70%.

In the case of `Cl.NC(=S)C1CCCc2ccc(-c3ccccc3)nc21` (centres undefined), the “Effective oral dose inhibiting gastric erosions” value in the assay with Rattus norvegicus [1] is 30 mg/kg. In addition, in the assay on Rattus norvegicus [2], the inhibition entry was “inactive”. The like results for `Cc1cnc2c(c1)CCC2C(N)=S.Cl` (centres undefined) were, in that order, 30 mg/kg and “inactive”. Take `Cc1cnc2c(c1)CCCC2C(N)=S.Cl` (centres undefined) [TIQUINAMIDE HYDROCHLORIDE]: in the assay with Rattus norvegicus [1], the “Effective oral dose inhibiting gastric erosions” value came to 10 mg/kg. The inhibition result with Rattus norvegicus [3] is “Active”. Consider `Cc1cnc2c(c1)CCCC2(C)C(N)=S.Cl` (centres undefined), for which the “Effective oral dose inhibiting gastric erosions” value in the assay on Rattus norvegicus [1] came out at 100 mg/kg. Also, the inhibition entry in the assay with Rattus norvegicus [2] is “inactive”. For the molecule `NC(=S)C1CCCc2cc3c(nc21)CCCCC3` (centres undefined), the “Effective oral dose inhibiting gastric erosions” value with Rattus norvegicus [1] turned out to be 30 mg/kg. Further, the inhibition in vivo at 30 mg/kg in the assay on Rattus norvegicus [2] is less than 70%. `Cl.NC(=S)C1CCCCc2cc3c(nc21)CCCCC3` (centres undefined): the “Effective oral dose inhibiting gastric erosions” value in the assay with Rattus norvegicus [1] came out at 100 mg/kg. In the assay with Rattus norvegicus [2], the inhibition entry was “inactive”. Taken in the same sequence, the figures for `Cc1cnc2c(c1)CCCC2C(=S)NCCCc1ccccc1.Cl` (centres undefined) were 100 mg/kg and “inactive”. With `NC(=S)c1cccc2cccnc12`, in the assay on Rattus norvegicus [3], the inhibition entry is “Active”.

Consider `NC(=S)c1cccc2c1NCCC2`, for which, in the assay with Rattus norvegicus [2], the inhibition entry is “inactive”.

Take `Cl.NC(=S)C1CCCc2cc3ccccc3nc21` (centres undefined): in the assay on Rattus norvegicus [1], the “Effective oral dose inhibiting gastric erosions” value is 30 mg/kg. Further, the inhibition result in the assay on Rattus norvegicus [2] is “inactive”. Consider `CCCCc1ccc2c(n1)C(C(N)=S)CCC2` (centres undefined), for which, in the assay with Rattus norvegicus [1], the “Effective oral dose inhibiting gastric erosions” value amounted to 100 mg/kg. Further, the inhibition in vivo at 30 mg/kg in the assay with Rattus norvegicus [2] was less than 70%. Taken in the same sequence, the figures for `CCCCNC(=S)C1CCCc2cc(C)cnc21.Cl` (centres undefined) were 100 mg/kg and less than 70%. As to `Cc1cnc2c(c1)CCCC2C1=NCCN1.Cl` (centres undefined), the “Effective oral dose inhibiting gastric erosions” value with Rattus norvegicus [1] turned out to be 100 mg/kg. Besides, the inhibition entry in the assay on Rattus norvegicus [2] is “inactive”. Take `CNC(=S)C1(C(=S)NC)CCc2cc3ccccc3nc21.Cl`: the “Effective oral dose inhibiting gastric erosions” value in the assay on Rattus norvegicus [1] stood at 100 mg/kg. Moreover, the inhibition result in the assay on Rattus norvegicus [2] is “inactive”. The like results for `Cc1cc2c([n+]([O-])c1)C(C(N)=S)CCC2` (centres undefined) were, in that order, 100 mg/kg and “inactive”.

Take `Cc1ccnc2c1CCCC2C(N)=S.Cl` (centres undefined): the “Effective oral dose inhibiting gastric erosions” value in the assay on Rattus norvegicus [1] amounted to 30 mg/kg. For the same molecule, the inhibition result with Rattus norvegicus [3] was “Active”. Regarding `CC(C)(C)c1ccc2c(n1)C(C(N)=S)CCC2` (centres undefined), the “Effective oral dose inhibiting gastric erosions” value in the assay on Rattus norvegicus [1] was determined as 30 mg/kg. Further, in the assay with Rattus norvegicus [2], the inhibition result was “inactive”. With `Cl.NC(=S)C1CCCc2cc3c(nc21)CCC3` (centres undefined), the “Effective oral dose inhibiting gastric erosions” value with Rattus norvegicus [1] came out at 100 mg/kg. The inhibition in vivo at 30 mg/kg in the assay on Rattus norvegicus [2] was less than 70%. Consider `Cc1cnc2c(c1)CCCC2C(N)=O` (centres undefined), for which the “Effective oral dose inhibiting gastric erosions” value in the assay with Rattus norvegicus [1] was found to be 100 mg/kg.

For the molecule `NC(=S)C1CCCc2c1ncc1c2CCCC1` (centres undefined), in the assay with Rattus norvegicus [1], the “Effective oral dose inhibiting gastric erosions” value was 30 mg/kg. Moreover, the inhibition in vivo at 30 mg/kg with Rattus norvegicus [2] is less than 70%.

Regarding `CC(=O)OC1(C(N)=S)CCCc2cc(C)cnc21` (centres undefined), in the assay with Rattus norvegicus [2], the inhibition entry is “inactive”. For `Cc1cnc2c(c1)CCCC2C#N.Cl` (centres undefined), the “Effective oral dose inhibiting gastric erosions” value in the assay with Rattus norvegicus [1] was 100 mg/kg. The inhibition in vivo at 30 mg/kg in the assay with Rattus norvegicus [2] was less than 70%.

Turning to `Cc1cc(-c2ccccc2)c2c(n1)C(C(N)=S)CCC2` (centres undefined), in the assay with Rattus norvegicus [2], the inhibition entry is “inactive”.

On to `Cc1cnc2c(c1C)CCCC2C(N)=S` (centres undefined), for which the inhibition in vivo at 30 mg/kg in the assay on Rattus norvegicus [2] is greater than 70%.
